Assay in all cases: Test C flooded paddy test, plant response rating
Type in all cases: in vivo
Conditions in all cases: flood, scale 0 to 100

In one experiment the test system is rice (Oryza sativa). The text has this:
(§1) At the same time, plants selected from these crop and weed species and also chickweed (common chickweed, Stellaria media), buckwheat, wild (wild buckwheat, Polygonum convolvulus), wild mustard (Sinapis arvensis), field poppy (Papaver rhoeas), field violet (Viola arvensis), geranium, cutleaf (cutleaf geranium, Geranium dissectum), Canada thistle (Cirsium arvense), and speedwell (bird's-eye speedwell, Veronica persica), were planted in pots containing Sunshine Redi-Earth® planting medium comprising spaghnum peat moss, vermiculite, starter nutrients and dolomitic limestone and treated with postemergence applications of test chemicals formulated in the same manner. Plants ranged in height from 2 to 18 cm (1- to 4-leaf stage) for postemergence treatments. Treated plants and controls were maintained in a greenhouse for 13 to 15 d, after which time all species were compared to controls and visually evaluated. Plant response ratings, summarized in Table C, are based on a scale of 0 to 100 where 0 is no effect and 100 is complete control. A dash (-) response means no test result.
(§2) Plant species in the flooded paddy test consisted of rice (Oryza sativa), sedge, umbrella (small-flower umbrella sedge Cyperus difformis), ducksalad (Heteranthera limosa), and barnyardgrass (Echinochloa crus-galli) grown to the 2-leaf stage for testing. At time of treatment, test pots were flooded to 3 cm above the soil surface, treated by application of test compounds directly to the paddy water, and then maintained at that water depth for the duration of the test.

Experiment [1] relates to sedge, umbrella (small-flower umbrella sedge Cyperus difformis).
Excerpt: as §1, §2

For experiment [2], the system named is ducksalad (Heteranthera limosa).
Excerpt: as §1, §2

Experiment [3] relates to barnyardgrass (Echinochloa crus-galli).
Excerpt: as §1, §2

For `C=C(Br)COC(=O)c1c(Br)cccc1Oc1ncc(Cl)cn1` [Compound 61], the “Rice plant response rating” value with rice (Oryza sativa) (31 g ai/ha), with rice (Oryza sativa) (62 g ai/ha), in the experiment on rice (Oryza sativa) (125 g ai/ha) and in the experiment on rice (Oryza sativa) (250 g ai/ha) was 20 in each case. Also, the “Sedge, Umbrella plant response rating” value in experiment [1] (31 g ai/ha) is reported as 80; in experiment [1] (62 g ai/ha) it was 80; in experiment [1] (125 g ai/ha), 85; in experiment [1] (250 g ai/ha), 85. Further, the “Ducksalad plant response rating” value was 50 in experiment [2] (31 g ai/ha), 75 in experiment [2] (62 g ai/ha), 90 in experiment [2] (125 g ai/ha) and 90 in experiment [2] (250 g ai/ha). Besides, the “Barnyardgrass plant response rating” value is recorded as 0 in experiment [3] (31 g ai/ha), 0 in experiment [3] (62 g ai/ha), 20 in experiment [3] (125 g ai/ha) and 40 in experiment [3] (250 g ai/ha).

On to `O=C(CCC(F)(F)F)c1c(Br)cccc1Oc1ncc(Cl)cn1` [Compound 92], for which the “Rice plant response rating” value turned out to be 10 in the experiment with rice (Oryza sativa) (31 g ai/ha), 15 in the experiment with rice (Oryza sativa) (62 g ai/ha), 15 with rice (Oryza sativa) (125 g ai/ha) and 15 in the experiment with rice (Oryza sativa) (250 g ai/ha). For the same molecule, the “Sedge, Umbrella plant response rating” value was 20 in experiment [1] (31 g ai/ha), 60 in experiment [1] (62 g ai/ha), 90 in experiment [1] (125 g ai/ha) and 100 in experiment [1] (250 g ai/ha). Also, the “Ducksalad plant response rating” value was 30 in experiment [2] (31 g ai/ha), 60 in experiment [2] (62 g ai/ha), 95 in experiment [2] (125 g ai/ha) and 100 in experiment [2] (250 g ai/ha). For the same molecule, the “Barnyardgrass plant response rating” value in experiment [3] (31 g ai/ha) amounted to 0; in experiment [3] (62 g ai/ha), 0; in experiment [3] (125 g ai/ha), 20; in experiment [3] (250 g ai/ha), 40.

The values above are taken from patent publication US11053204B2, “Pyrimidinyloxy benzene derivatives as herbicides” (FMC Corporation, priority 2015, dated 2021).
